In US20250288572A1, “COMPOSITIONS AND METHODS FOR TREATING PULMONARY VASCULAR DISEASE” (UNIVERSITY OF PITTSBURGH-OF THE COMMONWEALTH SYSTEM OF …, priority 2022, published 2025):
Entries after “also recorded” stand apart in the source; their conditions may differ. Where a SMILES comes first, the peptide text is derived from it. The star is where a group is joined. Cbz = O=C(OCc1ccccc1)*

What was measured:
[1] = test system: rats with PAH due to monocrotaline exposure; test: Monocrotaline PAH rats, glutaminase inhibitors daily i.p. Days 7-21 (Example 2); type: in vivo; conditions: MCT rats; for Fulton index / right ventricular systolic pressure (RVSP): 10 mg/kg daily i.p. Days 7-21, vs vehicle control
Description: In rats with PAH due to monocrotaline exposure, daily i.p, delivery of CB-839 (10 mg/kg) vs. UPGL00064 (10 mg/kg) vs. vehicle control was performed from Days 7-21 post-monocrotaline exposure. […] Error bars represent ±SEM. […] In rats with PAH due to monocrotaline exposure, daily i.p. delivery of CB-839 (10 mg/kg) vs. UPGL000064 (10 mg/kg) vs. vehicle control was performed from Days 7-21 post-monocrotaline exposure. […] Error bars represent ±SEM.

PAECs [2] = test: RT-qPCR gene expression in PAECs; type: cell-based, human; conditions: for expression of Cluster 15 members (SLC9A3R1, LGALS3): IL-1β-induced expression changes
Description: (§1) The hypoxia chamber (modular incubator chamber) was obtained from Billups-Rothenberg Inc. (Del Mar, Cali) and placed in regulated CO2 incubator at 37° C.
RT-qPCR analysis: Cells were lysis in 1 ml of QiaZol reagent (Qiagen). Total RNA content was extracted using the RNeasy kit (Qiagen), according to the manufacturer's instructions. Total RNA concentration was determined using a BioTek Synergy multimode plate reader. Messenger RNAs were reverse transcribed to generate cDNA using the Multiscript RT kit (Thermo Fisher Scientific). cDNA for specific gene targets was amplified and quantified via fluorescently-labeled Taqman primer sets and Taqman fast advanced master mix (Thermo Fisher Scientific) using an Applied Biosystems QuantStudio 6 Flex Real-Time PCR System.

PAECs [3] = test: Flow cytometry detection of mitochondrial superoxide (MitoSOX Red) in PAECs
Description: To assess the effect of I-BET under inflammatory conditions, cells were treated with recombinant human IL-1β (10 ng/ml, Peprotech) at about 70-80% confluency for 48 h in complete media along with vehicle control (DMSO, Sigma-41639), I-BET151 (500 nM), 1-BET762 (500 nM) (Selleckchem-S2780/S7189), as indicated.
For hypoxia exposure, cells were plated in 6-well cell culture plates at 1×10^5 cells/well, grown for 24 hr and placed into a normobaric hypoxia chamber (1%02) for 24 h under specific treatment conditions. Namely, for I-BET and siLGALS8 exposures, cells were either pre-treated with I-BET/vehicle control (VC) or transfected with siLgals8/Scr for 24 h. Then, they were cultured in basal media at 1% 02. After 24 h, caspase activity and mitochondrial superoxide levels were quantified. To detect activation status of pSTAT1/STAT1 by immunoblot, cells were exposed to 8 h of hypoxia.
Flow cytometry detection of mitochondria superoxide: For measuring mitochondrial superoxide, cells were incubated with 5 μM of MitoSOX Red mitochondrial superoxide indicator (Thermo Fisher Scientific) for 10 min in 37° C.

[4] = test system: SU5416-hypoxic pulmonary arterial hypertension rats; test: SU5416-hypoxia pulmonary arterial hypertension rat model, disease-reversal dosing; type: in vivo, Sprague-Dawley rats; conditions: SU5416-hypoxia rats
Description: Briefly, 10 week old male Sprague-Dawley rats were injected i.p. with 20 mg/kg of SU5416 (Sigma), placed in normobaric hypoxia (10% 02) for 3 weeks and then transferred to normoxia for 2 weeks. During hypoxic exposure, chambers were opened twice a week for cleaning and replenishment of food and water. […] For BRD2889 vs. vehicle control dosing, i.p. injections every 5 days (5 mg/kg) were administered during the final two weeks of normoxia. Oxygen concentrations were continuously monitored with blood gas analyzers.
Measurement of GST activity: The GST activity from lung tissue and PAECs was assayed using GST assay kit (Cayman, MI, USA) per the manufacturer's instructions.
Rodent echocardiography: Echocardiography was performed using a 15-45M Hz transthoracic transducer and a Visual Sonics Vevo 3100 system (Fujifilm). Inhaled isoflurane anesthesia was used at 2% in 100% 02 during positioning and hair removal and then decreased to isoflurane 0.8% during imaging.

LGALS8 = test: Immunoblot and densitometry of LGALS8 isoforms in PAECs; type: cell-based, human; conditions: IL-1β, listed as I-BET
Description: (§2) Immunoblot and densitometry: Cells were lysed in RIPA buffer (Sigma) along with 1× protease inhibitor cocktail (Sigma). Protein lysate was resolved by gradient 4%-15% SDS-PAGE gels and transferred onto a 0.2 μm PVDF membrane (Bio-Rad). Membranes were blocked in 5% non-fat milk in 1×PBST buffer for one hour at room temperature. Later, they were incubated in the presence of the primary antibody overnight at 4° C., and then appropriate HRP-conjugated secondary antibodies (Life Technologies). The following antibodies were used: human LGALS8 (AF1305, RnD Systems), mouse/rat Lgals8 ([…], Abcam), pSTAT1 (ab29045, Abcam) and STAT1 (ab47425, Abcam), GSTP1 (ab153949, Abcam), ISCU (14812-1-AP, Pointech), Glutathione (ab19534, Abcam), HIF2A (NB100-122, Novous), α-Tubulin (CP06, Millipore sigma), and ACTB (sc-47778, Santa Cruz). The immunoreactive bands were visualized with the Chemidoc XRS+ system (Bio-Rad) using SuperSignal West Femto chemiluminescent substrates (Thermo Fisher Scientific). The images were later quantified using AlphaEaseFC software (Alpha Innotech).

PAECs [5] = test: Cellular apoptosis, caspase-3/7 activity (Caspase-Glo 3/7) in PAECs; type: cell-based, human; conditions: PAECs
Description: as §1
Cellular apoptosis: Caspase-3/7 activity was quantified using the Caspase-Glo 3/7 Assay (Promega), according to manufacturer's instructions. Caspase-3/7 activity was normalized to total protein content determined by BCA method (Thermo Fisher Scientific).

[6] = test system: hypoxia-induced pulmonary hypertension mice; test: Hypoxia-induced (Group 3) pulmonary hypertension mouse model
Description: Animal models: For the hypoxia-induced pulmonary hypertension mice, male C57BL/6J mice (8 weeks old) (RRID:IMSR_JAX:000664) were purchased from Jackson laboratory and acclimatized for 3-4 days in this facility. Subsequently, mice scheduled for normoxic vs. hypoxic exposure were maintained in either normoxia or a normobaric hypoxia chamber for 1 or 3 weeks (OxyCycler, Biospherix Ltd.), where consistent exposure to 10% oxygen and control for temperature and humidity were possible.
I-BET was dissolved in DMSO at 100× concentration and then made into a working solution in 20% PEG400 and 80% 1×PBS.
Male and female 8 week old Lgals8−/− mice were exposed to hypoxia for 3 weeks. Littermates were used as wildtype (WT) control when comparing with knockout mice.
Immunofluorescent staining: Cryostat sections were cut from OCT-embedded lung tissues at 5-10 μm and mounted on gelatin-coated histological slides. Slides were thawed at room temperature for 10-20 min and rehydrated in wash buffer for 10 minutes. All sections were blocked in 10% donkey scrum and exposed to primary antibody and Alexa 488, 568 and 647-conjugated secondary antibodies (Thermo Fisher Scientific). The following primary antibodies were used: Lgals8 (Ab69631, Abcam; 1/2200), IL-1 (ab9722, Abcam; 1%200), GSTP1 (ab153949, Abcam; 1:100), ISCU (14812-1-AP, Proteintech; 1:100), cleaved caspase 3 (cs-9661, Cell Signaling; 1/400), α-SMA (F3777, Sigma; I/200) and CD31 (ab7388, Abcam: 1/200). Images were obtained using Nikon A1 confocal microscope with 40× objective. Small pulmonary vessels (10 vessels/section) that were not associated with bronchial airways were selected for analysis. Intensity of staining was quantified using ImageJ software (NIH). Degree of pulmonary arteriolar muscularization was assessed in OCT lung sections stained for α-SMA by calculation of the proportion of fully and partially muscularized peripheral (<100 μm diameter) pulmonary arteriole to total peripheral pulmonary arterioles (Bertero T et al. J Clin Invest. 2014, 124, 3514-3528).

ISCU = test: Protein stability assay (proteasome inhibitor MG132) in hypoxic PAECs; type: cell-based, human; set-up: dose or concentration left out as unconfirmed; conditions: MG132 (2 h)
Description: Protein stability assay: The proteasome inhibitor MG132 (M7449, Sigma) was stored at −20° C. at a concentration of 10 mM diluted in dimethyl sulfoxide (DMSO). PAECs were exposed to MG132 ([…]) vs. DMSO vehicle control for 2 hr under hypoxia, prior to harvesting of cellular lysate for immunoblotting.
as §2

[7] = IL-1β 10 ng/ml 48 h, 500 nM vs vehicle control
[8] = IL-1β 10 ng/ml 48 h, 500 nM vs vehicle control, listed as I-BET
[9] = I-BET762 30 mg/kg daily i.p. or BRD2889 5 mg/kg i.p. every 5 days, final 2 weeks
[10] = hypoxic mice, I-BET762 30 mg/kg daily oral
[11] = IL-1β 48 h, I-BET plus rhGal8 24 h (30 nM)

`O=C(Cc1cccc(OC(F)(F)F)c1)Nc1ccc(CCCCc2nnc(NC(=O)Cc3ccccn3)s2)nn1` [CB-839, reference compound] was tested, and the Fulton index [1] was “significantly decreased” and the “right ventricular systolic pressure (RVSP)” value [1] was “significantly decreased”.

In the case of `COc1cc2c(cc1-c1c(C)noc1C)ncc1[nH]c(=O)n([C@H](C)c3ccccn3)c12` [I-BET151], the “expression of Cluster 15 members (SLC9A3R1, LGALS3)” value (PAECs [2]) is reported as “reversed”.

With `CCNC(=O)C[C@@H]1N=C(c2ccc(Cl)cc2)c2cc(OC)ccc2-n2c(C)nnc21` [I-BET762] the “mitochondrial superoxide (O2−) levels, MitoSOX Red” value (PAECs [3]; [7]) was “reversed the IL-1β-induced increases; also recorded: reversed by I-BET762”, the “mitochondrial superoxide (O2−) levels, MitoSOX Red” value (PAECs [3]; [8]) was “reduced the IL-1β-dependent increase” and the “mitochondrial superoxide (O2−) levels, MitoSOX Red” value (PAECs [3]; hypoxia 24 h, vs vehicle control) was “reversed the hypoxia-induced increases”. The “LGALS8 in pulmonary arterioles (immunofluorescence)” value ([4]; I-BET762 30 mg/kg daily i.p. Days 21-35) was “decreased”, the “arteriolar muscularization (α-SMA)” value [4, 9] was “reduced” and the “cleaved caspase-3 (CC-3), endothelial apoptosis” value [4, 9] was “reduced downstream apoptosis; also recorded: decreased”. For the same molecule, the “right ventricular systolic pressure (RVSP)” value [4, 9] was “reduced”, the LGALS8-L transcript (PAECs [2]; IL-1β) was “reversed the alterations” and the “expression of C15 genes LGALS3, LGALS8, DAG1, SLC9A3R1 (extent of reversal)” value (PAECs [2]; IL-1β) was “near complete reversal”. The “expression of CD47, ABCC4 and DAG1” value (PAECs [2]; IL-1β) was “all rescued”, the “expression of Cluster 15 (C15) gene galectin-8 (LGALS8)” value (PAECs [2]; IL-1β) was “reversed the IL-1β-induced increases” and the LGALS8-L transcript (PAECs [2]; IL-1β, listed as I-BET) was “reversed by I-BET”. The LGALS8-M transcript (PAECs [2]; IL-1β, listed as I-BET) was “not altered by I-BET”, the “expression of Cluster 15 members (SLC9A3R1, LGALS3)” value (PAECs [2]) was “reversed” and the “LGALS8-L protein (immunoblot densitometry)” value (LGALS8) was “followed its mRNA expression; also recorded: reversed the IL-1β-induced increase”. The “LGALS8-M protein (immunoblot densitometry)” value (LGALS8) was “no significant difference”, the “apoptosis, caspase-3/7 activity” value (PAECs [5]; [7]) was “reversed the IL-1β-induced increases” and the “apoptosis, caspase-3/7 activity” value (PAECs [5]; [8]) was “reduced the IL-1β-dependent increase”. The “apoptosis, caspase-3/7 activity” value (PAECs [5]; hypoxia 24 h, I-BET vs vehicle control) was “reversed the hypoxia-induced increases”, the “cleaved caspase-3 (apoptosis)” value [6, 10] was “reduced downstream apoptosis; also recorded: reversed the 3 week hypoxia-dependent increases” and the heart rate [6, 10] was “without significant effect”. For the same molecule, the “pulmonary vascular LGALS8 expression” value [6, 10] was “robustly decreased; also recorded: reversed the 3 week hypoxia-dependent increases”, the “pulmonary vascular muscularization (α-SMA)” value [6, 10] was “reduced; also recorded: reversed the 3 week hypoxia-dependent increases” and the “right ventricular systolic pressure (RVSP)” value [6, 10] was “reduced; also recorded: reversed the 3 week hypoxia-dependent increases”. It also gave an LGALS8 ([6]; normoxic mice, similar dosing, mean±SEM, vehicle control 1±0.02, p=NS) of 1.08±0.03 fold change.

In the case of `CC(C)C[C@@H](C=O)NC(=O)[C@H](CC(C)C)NC(=O)[C@H](CC(C)C)NC(=O)OCc1ccccc1` [MG132] (Cbz-Leu-Leu-Leu-aldehyde), the “GSTP1 and ISCU glutathionylation” value (ISCU) is reported as “without affecting GSTP1 or glutathionylation” and the ISCU protein (ISCU) is reported as “reversed the hypoxic down-regulation of ISCU; also recorded: reversed the hypoxia-induced reduction of ISCU”.

`O=C(Cc1ccccc1)Nc1nnc(NC2CCN(c3nnc(NC(=O)CC4CC4)s3)CC2)s1` [UPGL00064] was tested, and the “Fulton index, compared with CB-839” value ([1]; 10 mg/kg daily i.p. Days 7-21) was “more robust trend toward lower Fulton index”, the “RVSP, compared with CB-839” value ([1]; 10 mg/kg daily i.p. Days 7-21) was “more robust trend toward lower RVSP” and the Fulton index [1] was “significantly decreased”. For the same molecule, the “right ventricular systolic pressure (RVSP)” value [1] was “significantly decreased”.

B1: rhGal8: recombinant human LGALS8 (galectin-8), R&D Systems 1305-GA-050 (protein, UniProt O00214 1-317, looked up)
Galectin-8: MMLSLNNLQNIIYNPVIPFVGTIPDQLDPGTLIVIRGHVPSDADRFQVDLQNGSSMKPRADVAFHFNPRFKRAGCIVCNTLINEKWGREEITYDTPFKREKSFEIVIMVLKDKFQVAVNGKHTLLYGHRIGPEKIDTLGIYGKVNIHSIGFSFSSDLQSTQASSLELTEISRENVPKSGTPQLRLPFAARLNTPMGPGRTVVVKGEVNANAKSFNVDLLAGKSKDIALHLNPRLNIKAFVRNSFLQESWGEEERNITSFPFSPGMYFEMIIYCDVREFKVAVNGVHSLEYKHRFKELSSIDTLEINGDIHLLEVRSW
In the case of B1, the “mitochondrial O2−: effect of rhGal8 on the I-BET-induced attenuation” value (PAECs [3]; [11]) is reported as “reduced the ability of I-BET to decrease; also recorded: reversed the I-BET-induced attenuation; also recorded: attenuated”, the mitochondrial superoxide (PAECs [3]; rhGal8 alone) is reported as “alone had no effect” and the “caspase 3/7 activity (apoptosis): effect of rhGal8 on the I-BET-induced attenuation” value (PAECs [5]; [11]) is reported as “reduced the ability of I-BET to decrease; also recorded: reversed the I-BET-induced attenuation”. For the same molecule, the apoptosis (PAECs [5]; rhGal8 alone) was “alone had no effect”.
